Test results taken from patent publication US20150166625A1 (Sanofi, priority 2013, published 2015).

System: female diabetic dbdb-mice
Assay: Glucose lowering in female diabetic dbdb-mice
Assay type: in vivo, mouse
Conditions: 100 μg/kg s.c.
Protocol: Female diabetic dbdb-mice (BKS.Cg-+Leprdb/+Leprdb/OlaHsd) 10 weeks of age at study start were used. Mice were habituated to feeding and housing conditions for at least 2 weeks. 7 days prior to study start, HbA1c were determined to allocate mice to groups, aiming to spread low, medium and high HbA1c-values and in consequence the group-means (n=8), as equally as possible. On the day of study, food was removed, directly before sampling for baseline glucose assessment (t=0 min). Immediately afterwards, compounds or vehicle (phosphor buffered saline, PBS) were administered subcutaneously, 100 μg/kg, 10 ml/kg. Afterwards, blood samples were drawn by tail tip incision at 15, 30, 60, 90, 120, 150, 180, 240, 360, 480 min and 24 h. Food was re-offered after the 480 min-sampling.
Data were analysed by 2-W-ANOVA on repeated measurements, followed by Dunnett's test as post-hoc assessment, level of significance p<0.05.

| Substance | maximal effect, glucose reduction (non-fasted female db/db mice, baseline on average 28 mmol/l) | reduction of glucose compared to vehicle control (female db/db mice, from t=60 min until 240 min, p<0.05) |
| --- | --- | --- |
| H-Aib-HGTFTSDLSKQLDEQLAKDFIEWLIAGGPSSGAPPPS-NH2 [SEQ ID NO: 9] | ~12 mmol/L | – |
| HSHGTFTSDLSKQLDEQLAKDFIEWLIAGGPSSGAPPPS-NH2 [SEQ ID NO: 10] | – | statistical significant reduction of glucose |
